# Data from US12370143B2, “Compound or salt thereof and lipid particles” (FUJIFILM Corporation, priority 2018, dated 2025).
# Legend:
# [1] = test system: DMS273 cells constantly expressing Luc; assay: Target reporter protein (Luc) knockdown in cell, reporter protein assay; assay type: cell-based; settings: Homo sapiens, DMS-273; Luc2-siRNA lipid particles using the compound; siRNA 0.1 to 100 nmol/L; concentration at which Luc expression is knocked down to 50%; read-out: IC50
# Procedure, shortened: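 Nucleic acid lipid particles added at final 0.1 to 100 nmol/L to DMS273 human SCLC cells stably expressing Luc2, 24 hr exposure then 24 hr further culture after medium change. Luc quantified by Steady Glo luminescence after viable cell count; knockdown efficiency calculated and IC50 taken as concentration giving 50% Luc reduction.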
# [2] = Nucleic acid encapsulation rate of nucleic acid lipid particles (FVII-siRNA); assay type: physicochemical
# Procedure, shortened: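 Total nucleic acid was measured by adding 30 μL of 3 mol/L sodium acetate and 9 μL of glycogen to 60 μL of FVII-siRNA lipid particles, then precipitating with 1.5 mL ethanol, centrifuging, air-drying, redissolving in water, and reading on a Nanodrop. Outer-phase nucleic acid came from a RiboGreen assay (ex 485 nm, em 535 nm) on samples diluted 10,000× in 1×TE. Encapsulation (%) = (total − outer)/total × 100.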
# [3] = Particle size of nucleic acid lipid particles (FVII-siRNA); assay type: physicochemical
# Procedure, shortened: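 Lipid particles formed by micromixing ethanolic ionizable lipid/DSPC/cholesterol/DMG-PEG2000 (50/10/38.5/1.5 mol) with siRNA in pH 4 acetate buffer (3:1 water:oil), diluted with PBS and dialysed against PBS.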
# [4] = Particle size of nucleic acid lipid particles (Luc2-siRNA); assay type: physicochemical; settings: compound/DSPC/cholesterol/DMG-PEG2000 50/10/38.5/1.5
# Procedure, shortened: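 Particle size was read by ELS-Z2 light scattering on nucleic acid lipid particles after dialysis against PBS. These were made by micromixing Luc2-siRNA (19.7 μmol/L, pH 4 acetate) with ethanolic lipids (test lipid/DSPC/cholesterol/DMG-PEG2000 50/10/38.5/1.5, 20 mmol/L) at 3:1 water:oil, siRNA/lipid 339 mol/mol.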
# [5] = test system: Factor VII (FVII) protein; assay: Measurement of Factor VII (FVII) protein in mouse plasma after FVII-siRNA lipid particles; assay type: in vivo, C57BL6/J mice; settings: 0.1 mg/kg caudal vein, plasma 24 hours after administration, PBS group = 100%
# Procedure, shortened: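 C57BL6/J mice (n=3) received FVII-siRNA nucleic acid lipid particles at 0.1 mg/kg into the tail vein; controls got PBS. Each value is the percentage of the PBS-group FVII level.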
# [6] = Encapsulation rate of siRNA in nucleic acid lipid particles (Luc2-siRNA); assay type: physicochemical; settings: compound/DSPC/cholesterol/DMG-PEG2000 50/10/38.5/1.5
# Procedure, shortened: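 Encapsulation rate was calculated as (total − outer-phase siRNA)/total ×100. Total siRNA was quantified spectrophotometrically after lipid-dissolving ethanol precipitation, and unencapsulated siRNA by RiboGreen in TE (ex 485/em 535 nm). The particles were test lipid/DSPC/cholesterol/DMG-PEG2000 at 50/10/38.5/1.5, formed by microfluidic mixing with Luc2-siRNA at pH 4 and dialyzed against PBS.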
Compound,IC50 [1] [nM],Nucleic acid encapsulation rate [2] [%],Particle size (nm) [3] [nm],Particle size (nm) [4] [nm],Relative amount of FVII protein (%) [5] [%],Nucleic acid encapsulation rate [6] [%]
"CCCCCCCCCCCC(=O)OCCN(CCOC(=O)OC(CCCCCC)CCCC(=O)OCC(CCCCCC)CCCCCCCC)CCN(CC)CC (stereo not drawn) [Example 109, 2-Hexyldecyl 6-(2-(dodecanoyloxy)ethyl)-3-ethyl-12-hexyl-10-oxo-9,11-dioxa-3,6-diazahexadecan-16-oate]",26,86,62.7,65.7,3,91
"CCCCCCCC/C=C\CCCCCCCC(=O)OCCN(CCOC(=O)OC(CCCCCC)CCCCCCCCC(=O)OCC(CCCCCC)CCCCCCCC)CCN(CC)CC (stereo not drawn) [Example 118, 2-Hexyldecyl 3-ethyl-12-hexyl-6-(2-(oleoyloxy)ethyl)-10-oxo-9,11-dioxa-3,6-diazahenicosan-21-oate]",35,64,80.5,93.6,9,90
"CCCCCCCCCCC(CCCCCCCC)COC(=O)CCCCCCCCC(CCCCCC)OC(=O)OCCN(CCN(CC)CC)C(C)C (stereo not drawn) [Example 121, 2-Octyldodecyl 3-ethyl-12-hexyl-6-isopropyl-10-oxo-9,11-dioxa-3,6-diazahenicosan-21-oate]",39,70,65.8,63.2,10,91
"CCCCCCCCCCC(CCCCCCCCC(=O)OCC(CCCC)CCCCCC)OC(=O)OCCN(CC)CCN(CC)CC (stereo not drawn) [Example 68, 2-Butyloctyl 12-decyl-3,6-diethyl-10-oxo-9,11-dioxa-3,6-diazahenicosan-21-oate]",37,91,84.5,70.7,9,97
"CCCCCCCC/C=C\CCCCCCCC(=O)OCCN(CCOC(=O)OC(CCCCCC)CCCC(=O)OCC(CCCCCC)CCCCCCCC)CCN(CC)CC (stereo not drawn) [Example 120, 2-Hexyldecyl 3-ethyl-12-hexyl-6-(2-(oleoyloxy)ethyl)-10-oxo-9,11-dioxa-3,6-diazahexadecan-16-oate]",27,66,68.1,66.5,6,90
"CCCCCCC(=O)OCCN(CCOC(=O)OC(CCCCCC)CCCCCCCCC(=O)OCC(CCCC)CCCCCC)CCN(CC)CC (stereo not drawn) [Example 104, 2-Butyloctyl 3-ethyl-6-(2-(heptanoyloxy)ethyl)-12-hexyl-10-oxo-9,11-dioxa-3,6-diazahenicosan-21-oate]",4,69,85.8,76.6,1,81
"CCCCCC/C=C\CCCCCCCC(=O)OCCCCCCC(CCCCCCOC(=O)CCCCCCC/C=C\CCCCCC)OC(=O)OCCN(CC)CCN(CC)CC [Example 46, 7-(((2-((2-(Diethylamino)ethyl)(ethyl)amino)ethoxy)carbonyl)oxy)tridecane-1,13-diyl(9Z,9′Z)-bis(hexadec-9-enoate)]",17,84,68.4,71,18,80
"CCCCC/C=C\C/C=C\CCCCCCCCC(CCCCCCCC/C=C\C/C=C\CCCCC)OC(=O)OCCN(CCC)CCN(C)C [Example 31, 2-((2-(Dimethylamino)ethyl)(propyl)amino)ethyl((6Z,9Z,28Z,31Z)-heptatriaconta-6,9,28,31-tetraen-19-yl)carbonate]",38,80,73.5,67.9,14,78
"CCCCC/C=C\C/C=C\CCCCCCCCC(CCCCCCCC/C=C\C/C=C\CCCCC)OC(=O)OCCN(CCCCCCCC)CCN(C)C [Example 52, 2-((2-(Dimethylamino)ethyl)(octyl)amino)ethyl((6Z,9Z,28Z,31Z)-heptatriaconta-6,9,28,31-tetraen-19-yl)carbonate]",27,83,73.1,79.9,19,80
"CCCCCCCCCC(=O)OCCN(CCOC(=O)OC(CCCCCC)CCCC(=O)OCC(CCCC)CCCCCC)CCN(CC)CC (stereo not drawn) [Example 107, 2-Butyloctyl 6-(2-(decanoyloxy)ethyl)-3-ethyl-12-hexyl-10-oxo-9,11-dioxa-3,6-diazahexadecan-16-oate]",23,83,70.6,64.8,1,78
"CCCCCCCCCCC(CCCCCCCC)COC(=O)CCCC(CCCCCC)OC(=O)OCCN(CCN(CC)CC)C(C)C (stereo not drawn) [Example 112, 2-Octyldodecyl 3-ethyl-12-hexyl-6-isopropyl-10-oxo-9,11-dioxa-3,6-diazahexadecan-16-oate]",18,100,74.2,68.6,3,79
"CCCCCCCCCC(CCCCCCCCC(=O)OCC(CCCC)CCCCCC)OC(=O)OCCN(CC)CCN(CC)CC (stereo not drawn) [Example 75, 2-Butyloctyl 3,6-diethyl-12-nonyl-10-oxo-9,11-dioxa-3,6-diazahenicosan-21-oate]",8,83,79.1,65.4,17,76
CCCCC/C=C\C/C=C\CCCCCCCCC(CCCCCCCC/C=C\C/C=C\CCCCC)OC(=O)OCCN(CCC)CCN(C)C(C)C [Example 64],5,86,65.7,61.5,10,75
